Assay results from the supplement of paper PMC10307832.

Tests used:
Assay in all cases: relative viability (nuclei count vs DMSO), 5 days (fraction); higher = more cells survive
AZ628 = compound: CC1=C(C=C(C=C1)NC(=O)C2=CC(=CC=C2)C(C)(C)C#N)NC3=CC4=C(C=C3)N=CN(C4=O)C [AZ628]
How it was run: (§1)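 Nuclei counted with MetaXpress define viability as the ratio of treated to vehicle wells, given as a median across plates. The lung cancer cell lines were in 1536-well plates, pinned with five √10-spaced library-drug doses and imaged at 4× after 5 days and Hoechst staining. Plates passed with control CV below 25% and at least one doubling.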

QS11 = compound: C1CC2=C(C1)C=C(C=C2)OC3=NC(=C4C(=N3)N(C=N4)CC5=CC=C(C=C5)C6=CC=CC=C6)N[C@@H](CC7=CC=CC=C7)CO [QS11]
How it was run: as §1

Darinaparsin = compound: C[As](C)SC[C@H](NC(=O)CC[C@H](N)C(=O)O)C(=O)NCC(=O)O [Darinaparsin]
How it was run: as §1

Row | Cell Line | relative viability (AZ628; 0.08 µM) | relative viability (AZ628; 0.253 µM) | relative viability (AZ628; 0.8 µM) | relative viability (AZ628; 2.53 µM) | relative viability (AZ628; 8 µM) | relative viability (QS11; 0.08 µM) | relative viability (QS11; 0.253 µM) | relative viability (QS11; 2.53 µM) | relative viability (QS11; 8 µM) | relative viability (Darinaparsin; 0.08 µM) | relative viability (Darinaparsin; 0.8 µM) | relative viability (Darinaparsin; 2.53 µM) | relative viability (Darinaparsin; 8 µM) | relative viability (QS11; 0.8 µM)
1 | A-427 | 0.999 | 0.891 | 0.884 | 0.919 | 0.436 | 0.862 | 1.05 | 1.05 | 1.04 | 1.1 | 0.96 | 1.03 | 1.13 | –
2 | EKVX | 1.05 | 0.959 | 1 | 0.939 | 0.774 | 0.973 | 0.922 | 0.907 | 1.06 | 1.04 | 0.922 | 0.943 | 1.04 | 0.602
3 | NCI-H650 | 1.13 | 1.05 | 1.3 | 1.1 | 1.26 | 0.841 | 0.908 | 0.932 | 0.89 | 0.988 | 1.01 | 0.967 | 0.947 | 1.01
4 | NCI-H2087 | 0.92 | 0.671 | 0.729 | 0.814 | 0.336 | 1.02 | 0.937 | 0.874 | 0.898 | 1.14 | 1.14 | 1.01 | 1.13 | 0.854
5 | NCI-H1755 | 0.992 | 1.02 | 0.97 | 0.989 | 0.948 | 1.03 | 0.983 | 0.861 | 0.783 | 1.12 | 0.964 | 0.945 | 1.13 | 0.638
6 | COR-L 105 | 1.01 | 1.14 | 0.951 | 0.928 | 0.592 | 0.895 | 0.89 | 0.892 | 0.831 | 0.996 | 0.986 | 0.781 | 1.03 | 0.822
7 | NCI-H838 | 1.02 | 0.992 | 0.951 | 0.932 | 0.868 | 0.99 | 0.915 | 0.908 | 0.872 | 0.997 | 0.931 | 0.991 | 1.14 | 0.784
8 | NCI-H1648 | 1.14 | 1.08 | 0.726 | 0.597 | 0.641 | 0.748 | 0.972 | 0.978 | 1.11 | 0.735 | 0.803 | – | 0.975 | 0.744
9 | NCI-H1993 | 0.995 | 0.848 | 0.835 | 0.735 | 0.515 | 1.02 | 0.884 | 0.992 | 0.824 | 1.02 | 0.885 | 1.03 | 0.922 | 0.918
10 | NCI-H1650 | 1.13 | 1.1 | 1.09 | 0.904 | 0.888 | 0.941 | 0.786 | 0.962 | 0.867 | 0.971 | 0.951 | 0.833 | 1.03 | 0.72
11 | NCI-H1563 | 0.997 | 0.925 | 0.991 | 0.952 | 1.05 | 0.951 | 1.02 | 1.12 | 0.971 | 1.05 | 0.948 | 0.996 | 1.04 | 0.965
12 | HARA | 0.978 | 0.962 | 0.825 | 0.974 | 0.563 | 0.931 | 0.875 | 1.02 | 0.995 | 1.08 | 0.88 | 0.914 | 1.04 | –
13 | NCI-H1703 | 0.597 | 0.395 | 0.32 | 0.303 | 0.245 | 0.94 | 0.908 | 1.04 | 0.923 | 1.43 | 1.09 | 0.889 | 1.07 | 0.901
14 | PC-3 [JPC-3] | 1.05 | 1.06 | 1.16 | 1.11 | 0.951 | 0.965 | 1.04 | 1.04 | 1.02 | 1.14 | 1.06 | 1.05 | 1.08 | 0.956
15 | ABC-1 | 1.12 | 0.727 | 0.873 | 0.793 | 0.767 | 1 | 0.957 | 1.17 | 1.15 | 0.952 | 0.956 | 0.928 | 0.968 | 0.895
16 | NCI-H441 | 0.932 | 1.02 | 0.988 | 1.06 | 0.787 | 0.978 | 1.04 | 0.985 | 0.855 | 1.49 | 1.14 | 0.991 | 1.26 | 0.92
